Values quoted from earlier work as cited in patent US20110313027A1, “METHODS AND SUBSTANCES FOR STIMULATING MUSCLE REGENERATION” (priority 2008, published 2011).

Test system: SERCAs
Conditions: cultured muscle cells

C/C=C(/C)C(=O)O[C@H]1C(C)=C2[C@H]([C@@H]1OC(=O)CCCCCCC)[C@@](C)(OC(C)=O)C[C@H](OC(=O)CCC)[C@@]1(O)[C@H]2OC(=O)[C@@]1(C)O [thapsigargin]
activity of an NFAT reporter construct: increased the activity | myotube growth and differentiation: decreases myotube growth and differentiation
